Measurements as given in patent US20130178488A1, “TRICYCLIC COMPOUNDS, PREPARATION METHODS, AND THEIR USES” (priority 2011, published 2013).

Each molecule was assayed against T1, recombinant human Lp-PLA2 (Homo sapiens, UniProt Q13093) (assay: Recombinant human Lp-PLA2 assay (rhLp-PLA2, PED6 assay)). Settings: one experiment or average of multiple experiments; upper limit of the PED6 assay is pIC50 9.3.
T1 sequence (Q13093 22-441): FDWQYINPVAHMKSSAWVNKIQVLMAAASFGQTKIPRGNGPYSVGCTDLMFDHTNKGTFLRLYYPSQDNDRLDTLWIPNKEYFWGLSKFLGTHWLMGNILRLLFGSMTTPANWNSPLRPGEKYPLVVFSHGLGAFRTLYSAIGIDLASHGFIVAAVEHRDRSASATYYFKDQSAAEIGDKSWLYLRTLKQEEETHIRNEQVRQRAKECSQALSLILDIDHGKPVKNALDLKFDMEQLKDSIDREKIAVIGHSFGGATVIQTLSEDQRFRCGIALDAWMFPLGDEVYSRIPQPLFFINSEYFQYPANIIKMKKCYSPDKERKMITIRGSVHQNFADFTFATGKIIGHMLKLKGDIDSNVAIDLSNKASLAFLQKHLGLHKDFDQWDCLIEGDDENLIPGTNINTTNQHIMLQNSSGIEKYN
Assay type: biochemical
Text: (1) Recombinant Human Lp-PLA2 Assay (rhLp-PLA2) (Also Referred to as “PED6” Assay)
N-((6-(2,4-dinitrophenyl)amino)-hexanoyl)-2-(4,4-difluoro-5,7-dimethyl-4-bora-3a,4a-diaza-s-indacene-3-pentanoyl)-1-hexadecanoyl-sn-glycero-3-phosphoethanolamine, triethylammonium salt (PED6) is a commercially available fluorescently-labeled phospholipid, which is commercially available from Molecular Probes. There is a quenching para-nitro phenyl (PNP) group in the sn3 position and a Bodipy fluorescein (FL) group in the sn2 position. Upon cleavage with LpPLA2, the Bodipy Fl group is liberated and then may result in an increase in fluorescence. Inhibitors of LpPLA2 therefore prevent this cleavage and no fluorescent increase is observed.
The PED6 assay is run as an unquenched 10 μL assay. Compounds source plate is prepared by making 1:3 (by volume) serial dilution of the compounds into pure DMSO on 384-well microplate. Then 0.01 μL of compounds on compound source plate are transferred into 384 well Greiner 784076 (black) plates by ECHO liquid dispenser. 5 μL of recombinant human Lp-PLA2 enzyme (2 nM rhLp-PLA2 in assay buffer of 50 mM HEPES, pH7.4, 150 mM NaCl, 1 mM CHAPS) is added to each well of the plate with compounds. Plates are centrifuged for 10 sec at 500 rpm. After 30 minutes preincubation, 5 μL of substrate (4 μM PED6 [from 5 mM DMSO stock] in assay buffer of 50 mM HEPES, pH7.4, 150 mM NaCl, 1 mM CHAPS) is added to 384 well Greiner 784076 (black) plates. Plates are centrifuged for 10 sec at 500 rpm. Plate is covered to protect from light and incubated for 20 min at room temperature. Plates are read for Fluorescence intensity at ex: 480/em: 540 using ViewLux microplate imager. PIC50 data, curve and QC analysis is conducted by using XL fit module in Excel.

Row | Structure (SMILES) | IC50 [nM]
1 | N#Cc1cc(COc2cc3n(c(=O)n2)CCc2cc(F)ccc2-3)ccc1Oc1cccc(C(F)(F)F)c1 [Example 89, 5-(((9-fluoro-4-oxo-6,7-dihydro-4H-pyrimido[6,1-a]isoquinolin-2-yl)oxy)methyl)-2-(3-(trifluoromethyl)phenoxy)benzonitrile] | 3.16
2 | N#Cc1cc(COc2cc3n(c(=O)n2)CCc2ccccc2-3)ccc1Oc1cccc(C(F)(F)F)n1 [Example 96, 5-(((4-oxo-6,7-dihydro-4H-pyrimido[6,1-a]isoquinolin-2-yl)oxy)methyl)-2-((6-(trifluoro-methyl)pyridin-2-yl)oxy)benzonitrile] | 0.794
3 | N#Cc1cc(COc2cc3n(c(=O)n2)CCc2cc(F)ccc2-3)ccc1Oc1ccc(Cl)c(C(F)(F)F)c1 [Example 92, 2-(4-chloro-3-(trifluoromethyl)phenoxy)-5-(((9-fluoro-4-oxo-6,7-dihydro-4H-pyrimido[6,1-a]isoquinolin-2-yl)oxy)methyl)benzonitrile] | 0.794
4 | COc1ccc2c(c1)CCn1c-2cc(Oc2ccc(Oc3cccc(C(F)(F)F)c3)c(C#N)c2)nc1=O [Example E1, 5-((9-Methoxy-4-oxo-6,7-dihydro-4H-pyrimido[6,1-a]isoquinolin-2-yl)oxy)-2-(3-(trifluoromethyl)phenoxy)benzonitrile] | ≤ 0.501
5 | O=c1nc(OCc2cc(F)c(Oc3ccc(C(F)(F)F)nc3)c(F)c2)cc2n1CCc1ccccc1-2 [Example 94, 2-((3,5-difluoro-4-((6-(trifluoromethyl)pyridin-3-yl)oxy)benzyl)oxy)-6,7-dihydro-4H-pyrimido[6,1-a]isoquinolin-4-one] | 1
6 | N#Cc1cc(COc2cc3n(c(=O)n2)CCc2ccccc2-3)ccc1Oc1ccc(C(F)(F)F)nc1 [Example 91, 5-(((4-oxo-6,7-dihydro-4H-pyrimido[6,1-a]isoquinolin-2-yl)oxy)methyl)-2-((6-(trifluoro-methyl)pyridin-3-yl)oxy)benzonitrile] | 1
7 | N#Cc1cc(COc2cc3n(c(=O)n2)CCc2ccccc2-3)ccc1Oc1ccc(Cl)c(C(F)(F)F)c1 [Example 88, 2-(4-chloro-3-(trifluoromethyl)phenoxy)-5-(((4-oxo-6,7-dihydro-4H-pyrimido[6,1-a]isoquinolin-2-yl)oxy)methyl)benzonitrile] | 0.794
8 | COc1ccc2c(c1)CCn1c-2cc(OCc2ccc(Oc3ccc(C(F)(F)F)nc3)c(F)c2)nc1=O [Example E58, 2-((3-fluoro-4-((6-(trifluoromethyl)pyridin-3-yl)oxy)benzyl)oxy)-9-methoxy-6,7-dihydro-4H-pyrimido[6,1-a]isoquinolin-4-one] | 1
9 | O=c1nc(OCc2ccc(Oc3cnc(C(F)(F)F)nc3)c(F)c2)cc2n1CCc1cc(F)ccc1-2 [Example 98, 9-fluoro-2-((3-fluoro-4-((2-(trifluoromethyl)pyrimidin-5-yl)oxy)benzyl)oxy)-6,7-dihydro-4H-pyrimido[6,1-a]isoquinolin-4-one] | ≤ 0.501
10 | COc1ccc2c(c1)CCn1c-2cc(OCc2ccc(Oc3ccc(C(F)(F)F)cn3)c(C#N)c2)nc1=O [Example E22, 5-(((9-Methoxy-4-oxo-6,7-dihydro-4H-pyrimido[6,1-a]isoquinolin-2-yl)oxy)methyl)-2-((5-(trifluoromethyl)pyridin-2-yl)oxy)benzonitrile] | 0.631
11 | N#Cc1cc(COc2cc3n(c(=O)n2)CCc2cc(F)ccc2-3)ccc1Oc1ccc(C(F)(F)F)cn1 [Example 93, 5-(((9-fluoro-4-oxo-6,7-dihydro-4H-pyrimido[6,1-a]isoquinolin-2-yl)oxy)methyl)-2-((5-(trifluoromethyl)pyridin-2-yl)oxy)benzonitrile] | 1
12 | COc1ccc2c(c1)CCn1c-2cc(OCc2ccc(Oc3ccc(C(F)(F)F)nc3)c(C#N)c2)nc1=O [Example E36, 5-({[9-(Methyloxy)-4-oxo-6,7-dihydro-4H-pyrimido[6,1-a]isoquinolin-2-yl]oxy}methyl)-2-{[6-(trifluoromethyl)-3-pyridinyl]oxy}benzonitrile] | 1
